# Measurements as given in PubChem BioAssay (NCI).
# Several values for one entry are separate records, joined by “and”; a condition that tells them apart may be missing. Identical values can stand only once.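 Compound exposure: 48 hours, 5 concentrations, 96-well plates. GI50 = concentration required for 50% inhibition of growth. At the TGI there is no net growth.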
# Assays:
# Experiment in all cases: inhibition of tumour cell growth, NCI panel, 48 h
# HOP-62 NSCLC = test system: HOP-62 NSCLC
# SK-OV-3 ovarian = test system: SK-OV-3 ovarian
# HT29 colon = test system: HT29 colon
# A549 NSCLC = test system: A549 NSCLC
# 786-0 renal = test system: 786-0 renal
# HCT-116 colon = test system: HCT-116 colon
# HOP-92 NSCLC = test system: HOP-92 NSCLC
# HCC-2998 colon = test system: HCC-2998 colon
# BT-549 breast = test system: BT-549 breast
# DU-145 prostate = test system: DU-145 prostate
SMILES,TGI (HOP-62 NSCLC),TGI (SK-OV-3 ovarian),TGI (HT29 colon) [µM],TGI (A549 NSCLC),TGI (786-0 renal),TGI (HCT-116 colon),TGI (HOP-92 NSCLC),TGI (HCC-2998 colon) [µM],TGI (BT-549 breast) [µM],TGI (DU-145 prostate) [µM],GI50 (HOP-62 NSCLC) [µM],GI50 (BT-549 breast) [µM],GI50 (SK-OV-3 ovarian) [µM],GI50 (HT29 colon) [µM],GI50 (A549 NSCLC) [µM],GI50 (786-0 renal) [µM],GI50 (HCT-116 colon) [µM],GI50 (HOP-92 NSCLC) [µM],GI50 (HCC-2998 colon) [µM],GI50 (DU-145 prostate) [µM]
O=S(=O)(O)CS(=O)(=O)OCCCl,> 100 µM,> 100 µM,> 100,> 100 µM,> 100 µM,> 100 µM,> 100 µM,> 100,–,–,–,–,–,–,–,–,–,–,–,–
Cn1ncc2cc3c(Nc4ccc(Cl)cc4)cccc3nc21,53 µM,> 100 µM,–,85.3 µM,> 100 µM,–,47.7 µM,54.5,–,–,–,–,–,–,–,–,–,–,–,–
COC(=O)Nc1nc2ccc(C(=O)c3ccc[nH]3)cc2[nH]1,> 95.9 µM,> 63 µM,> 100,> 100 µM,> 100 µM,> 100 µM,–,> 100,> 100,> 23.2,–,–,–,–,–,–,–,–,–,–
CCOC(=O)Cc1c(Cc2[nH]c(C(=O)OCc3ccccc3)c(CC(=O)OCC)c2CC(=O)OCC)[nH]c(C(=O)OCc2ccccc2)c1CC(=O)OCC,> 100 µM,> 100 µM,> 100,> 100 µM,> 100 µM,> 100 µM,> 100 µM,–,–,–,–,–,–,–,–,–,–,–,–,–
O/N=C1/C(=C/c2ccc(F)cc2)CCCC1C(NO)c1ccc(F)cc1 (configuration not stated),> 100 µM,> 100 µM,45.2,> 100 µM,> 100 µM,> 100 µM,–,> 100,–,–,–,–,–,–,–,–,–,–,–,–
Cc1c(NC(=O)C(=O)N=NC(=O)c2ccncc2)c(O)c2ccccc2c1O,40.7 µM,> 88.9 µM,44.9,30.2 µM,59.2 µM,30.1 µM,33.5 µM,30.7,–,–,–,–,–,–,–,–,–,–,–,–
N[C@H]1C2C3CC4C5CC(C42)C1(c1ccccc1)C53 (some centres not stated),> 100 µM,> 100 µM,> 100,> 100 µM,> 100 µM,> 100 µM,> 100 µM,> 100,–,–,–,–,–,–,–,–,–,–,–,–
O=[N+]([O-])c1ccc(-c2ccc(/C=N/n3c(-c4ccc(Cl)cc4)n[nH]c3=S)o2)cc1,> 52.9 µM,> 100 µM,> 55.2,> 64.6 µM,46.2 µM,43.6 µM,> 94.3 µM,> 100,–,–,–,–,–,–,–,–,–,–,–,–
CCOC(=O)C1C=C2O[C@@H]3OC4(CCCCC4)O[C@@H]3C2[C@H]2C(=O)C=CC(=O)[C@@]12C(=O)OC (some centres not stated),36.3 µM,32.2 µM,19.4,33.1 µM,18.7 µM,19.1 µM,26.2 µM,28,–,–,–,–,–,–,–,–,–,–,–,–
O=C1C2=C(c3ccccc31)C(c1ccc(Cl)cc1)N1C(=O)CCSC1=N2 (configuration not stated),> 100 µM,> 100 µM,> 100,> 100 µM,> 100 µM,> 100 µM,> 100 µM,> 100,–,–,–,–,–,–,–,–,–,–,–,–
C[C@@H](c1ccc2nccn2c1)n1nnc2ncc(-c3cnn(C)c3)nc21,> 100 µM,> 100 µM,> 100,> 100 µM,> 100 µM,> 100 µM,> 100 µM,> 100,> 100,–,> 100,91.7,> 100,> 100,> 100,> 100,> 100,58,> 100,–
CCOC(=O)CCC(NC(=O)c1ccc(N=Cc2nc3cc(C(F)(F)F)ccc3nc2-c2ccccc2)cc1)C(=O)OCC (configuration not stated),50 µM and 40.6 µM,23.2 µM and 38.2 µM,> 100,50 µM and > 100 µM,18.9 µM and > 100 µM,19.4 µM and > 100 µM,18.3 µM and 45.8 µM,> 100,–,50,16.3,–,14.1,> 100,> 100,30.8,44.7,12.5,> 100,–
CCOC(=O)/N=c1\ss/c(=N\C(=S)N(C)C)n1-c1ccccc1,> 100 µM,> 100 µM,> 100,> 100 µM,> 100 µM,> 100 µM,94.2 µM,> 100,–,–,–,–,> 100,–,> 100,–,> 100,–,> 100,–
O=C1C2=C(c3ccccc31)C(c1cccc(Cl)c1)NC(=S)N2 (configuration not stated),> 100 µM,> 100 µM,> 100,> 100 µM,> 100 µM,> 100 µM,> 100 µM,> 100,–,–,–,–,–,–,–,–,–,–,–,–
C/C(=N\NC(=S)Nc1ccc(C(=O)O)cc1)c1ccccn1,> 100 µM,–,> 100,> 100 µM,43.3 µM,51.4 µM,> 100 µM,32.7,–,–,–,–,–,–,–,–,–,–,–,–
Cc1cc(Br)cc(C)c1NC(=O)C(=O)CC(=O)c1sc(-n2nc(-c3ccccc3)cc2-c2ccccc2)nc1C,> 100 µM,> 100 µM,> 100,> 100 µM,> 100 µM,> 100 µM,> 100 µM,> 100,–,–,–,–,–,–,–,–,–,–,–,–
COc1cc(-c2cc(C(=O)N3CCN(C(=O)c4ccccc4NCc4ccco4)CC3)nc3cc(-c4ccccc4)nn23)cc(OC)c1OC,> 100 µM,18.8 µM,10.7,> 100 µM,> 100 µM,> 100 µM,–,> 100,> 100,–,3.03,4.27,2.58,1.56,2.13,4.55,3.26,–,7.56,–
NNC(=O)/C(=C/c1cccc([N+](=O)[O-])c1)NC(=O)c1ccccc1,> 100 µM,> 100 µM,> 100,> 100 µM,> 100 µM,> 100 µM,> 100 µM,> 100,–,–,–,–,–,–,–,–,–,–,–,–
COc1c(OC(C)=O)ccc(/C=C2\N=C(C)OC2=O)c1[N+](=O)[O-],> 100 µM,> 100 µM,> 100,> 100 µM,> 100 µM,> 100 µM,> 100 µM,> 100,–,–,–,–,–,–,–,–,–,–,–,–
CC1(C)N=C(N)N=C(N)N1c1cccc(/C=C/C=C/c2cccc([N+](=O)[O-])c2)c1,35.9 µM,> 100 µM,14.7,24 µM,52.9 µM,30.4 µM,–,18.5,23.8,20.2,18.1,6.91,32.1,1.59,3.9,21.3,3.16,–,4.71,7.5
